Test systems include HS 578T breast; HCT-15 colon; SW-620 colon; NCI-H226 lung; SN12C renal; U251 CNS; SNB-75 CNS; NCI/ADR-RES ovarian; OVCAR-8 ovarian; RXF 393 renal.
Holding throughout (test): NCI-60 cell line screen, 48 h

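Compound exposure: 48 hours, 5 concentrations, 96-well plates. The concentration for 50% growth inhibition is given as GI50. TGI denotes the concentration required for complete inhibition of growth.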

As to `COC(=O)NC1=Nc2ccccc2C(=O)NN1`, the TGI in the experiment with HS 578T breast, with HCT-15 colon, in the experiment with SW-620 colon, in the experiment with NCI-H226 lung, in the experiment with SN12C renal and in the experiment with U251 CNS was > 100 µM in each case. Also, the TGI in the experiment on SNB-75 CNS, with NCI/ADR-RES ovarian, in the experiment with OVCAR-8 ovarian and in the experiment on RXF 393 renal was > 100 µM in each case.
For `CCc1nc(N)nc(N)c1-c1ccc(N2CCNCC2)c([N+](=O)[O-])c1`, the TGI is > 74.2 µM in the experiment with HS 578T breast; > 100 µM in the experiment with HCT-15 colon; > 100 µM in the experiment on SW-620 colon; > 100 µM with NCI-H226 lung; > 100 µM in the experiment with SN12C renal; > 100 µM in the experiment with U251 CNS. Also, the TGI in the experiment on SNB-75 CNS was > 95.8 µM; with NCI/ADR-RES ovarian it was > 100 µM; with OVCAR-8 ovarian, > 100 µM; in the experiment on RXF 393 renal, > 100 µM.
With `C=C(CC)C(=O)c1ccc(OCC(=O)O)c(Cl)c1Cl`, the TGI stood at 45.9 µM in the experiment on HS 578T breast; 58.8 µM with HCT-15 colon; 34.2 µM in the experiment on SW-620 colon; 45.8 µM with NCI-H226 lung; 47.5 µM in the experiment with SN12C renal; 29.7 µM in the experiment on U251 CNS. Besides, the TGI in the experiment with SNB-75 CNS was 50 µM; in the experiment on NCI/ADR-RES ovarian, > 61.9 µM; in the experiment with OVCAR-8 ovarian, 37.2 µM; in the experiment on RXF 393 renal it was 34.2 µM.
Consider `Cc1c(Br)c(Br)c2c3c1nc(N1CCNCC1)n3CCC2`, for which the GI50 in the experiment with HS 578T breast is 2.45 µM; with HCT-15 colon, 1.69 µM; in the experiment with SW-620 colon, 1.55 µM; in the experiment on NCI-H226 lung, 1.95 µM; in the experiment with SN12C renal it was 1.42 µM; in the experiment on U251 CNS, 1.86 µM. Further, the GI50 in the experiment on SNB-75 CNS was 1.96 µM; in the experiment with NCI/ADR-RES ovarian it was 1.8 µM; in the experiment on OVCAR-8 ovarian, 2.08 µM; in the experiment on RXF 393 renal, 1.7 µM. Further, the TGI in the experiment on HS 578T breast came to 6.5 µM; in the experiment on HCT-15 colon, 3.33 µM; in the experiment on SW-620 colon it was 3.09 µM; in the experiment with NCI-H226 lung, 5.31 µM; in the experiment with SN12C renal, 2.85 µM; in the experiment on U251 CNS it was 4.11 µM. Moreover, the TGI came to 4.1 µM with SNB-75 CNS, 3.82 µM in the experiment on NCI/ADR-RES ovarian, 5.46 µM with OVCAR-8 ovarian and 3.41 µM in the experiment on RXF 393 renal.
Consider `CCOC(=O)C(Cc1ccccc1)n1c(O)c(/C=N/c2ncc(Cc3ccc(Cl)cc3Cl)s2)sc1=S` (stereo not given), for which the GI50 in the experiment on HS 578T breast is 3.62 µM; in the experiment on HCT-15 colon it was 0.548 µM; with SW-620 colon it was 3.45 µM; with NCI-H226 lung, 3.29 µM; with SN12C renal, 1.59 µM; in the experiment on U251 CNS, 2.51 µM. For the same compound, the GI50 was 2.81 µM with SNB-75 CNS, 2.56 µM with NCI/ADR-RES ovarian, 2.07 µM with OVCAR-8 ovarian and 2.56 µM with RXF 393 renal. The TGI is 41.1 µM in the experiment with HS 578T breast; > 100 µM in the experiment on HCT-15 colon; > 100 µM in the experiment with SW-620 colon; > 100 µM in the experiment on NCI-H226 lung; > 100 µM in the experiment with SN12C renal; 15 µM in the experiment with U251 CNS. In addition, the TGI is 21.4 µM in the experiment on SNB-75 CNS, 15.1 µM with NCI/ADR-RES ovarian, > 100 µM in the experiment on OVCAR-8 ovarian and 6.7 µM with RXF 393 renal.
`Cc1cc2c(C(C)C)c(O)c(O)c(/C=N/O)c2c(O)c1-c1c(C)cc2c(C(C)C)c(O)c(O)c(/C=N/O)c2c1O`: the GI50 in the experiment with HS 578T breast is 2.03 µM; with HCT-15 colon, 2.35 µM; in the experiment with SW-620 colon, 2.94 µM; in the experiment on NCI-H226 lung it was 2.87 µM; in the experiment on SN12C renal, 4.34 µM; in the experiment with U251 CNS it was 1.89 µM. For the same compound, the GI50 is 3.57 µM in the experiment on SNB-75 CNS, 3.4 µM with NCI/ADR-RES ovarian, 2.94 µM in the experiment on OVCAR-8 ovarian and 1.49 µM in the experiment with RXF 393 renal. Besides, the TGI came to 27.4 µM in the experiment on HS 578T breast; 13.4 µM with HCT-15 colon; 12.3 µM in the experiment with SW-620 colon; 9.72 µM in the experiment with NCI-H226 lung; 18.5 µM in the experiment on SN12C renal; 11.8 µM with U251 CNS. For the same compound, the TGI in the experiment with SNB-75 CNS was 17.4 µM; in the experiment with NCI/ADR-RES ovarian, 15.1 µM; with OVCAR-8 ovarian, 13.2 µM; with RXF 393 renal, 6.36 µM.
With `O=C1NC(=NCCc2ccccc2F)S/C1=C\c1ccc2ncccc2c1`, the GI50 is 7.05 µM in the experiment on HS 578T breast; 1.84 µM with HCT-15 colon; 2.73 µM in the experiment with SW-620 colon; 7.59 µM in the experiment with NCI-H226 lung; 8.18 µM in the experiment on SN12C renal; 4.69 µM in the experiment with U251 CNS. In addition, the GI50 was 5.34 µM in the experiment on SNB-75 CNS, 9.2 µM in the experiment with NCI/ADR-RES ovarian, 9.65 µM in the experiment with OVCAR-8 ovarian and 7.18 µM in the experiment with RXF 393 renal. Also, the TGI is > 23.4 µM with HS 578T breast; > 25 µM in the experiment on HCT-15 colon; > 25 µM with SW-620 colon; > 25 µM in the experiment with NCI-H226 lung; > 25 µM in the experiment with SN12C renal; > 25 µM with U251 CNS. In addition, the TGI with SNB-75 CNS is 19.1 µM; in the experiment with NCI/ADR-RES ovarian, > 25 µM; with OVCAR-8 ovarian, > 25 µM; in the experiment with RXF 393 renal, > 25 µM.
Regarding `C/C(=N\O)C1CC(CC(=O)O)C1(C)C` (stereo not given), the TGI in the experiment on HS 578T breast, in the experiment on HCT-15 colon, with SW-620 colon, in the experiment with NCI-H226 lung, in the experiment with SN12C renal and with U251 CNS was > 100 µM throughout. Also, the TGI in the experiment on SNB-75 CNS, with NCI/ADR-RES ovarian, in the experiment with OVCAR-8 ovarian and with RXF 393 renal was > 100 µM throughout.
As to `Cn1ccc(S(=O)(=O)N2CCC[C@H](Nc3nccc(-c4c(-c5cccc(O)c5)nc5occn45)n3)C2)n1`, the GI50 in the experiment on HS 578T breast was 7.57 µM; in the experiment with HCT-15 colon it was 22.3 µM; with SW-620 colon, 15.9 µM; in the experiment with NCI-H226 lung it was 11.5 µM; in the experiment on SN12C renal, 8.01 µM; in the experiment on U251 CNS, 22.3 µM. The GI50 in the experiment on SNB-75 CNS was 1.9 µM; with NCI/ADR-RES ovarian, > 78.7 µM; with OVCAR-8 ovarian, 18.9 µM; in the experiment on RXF 393 renal, 4.47 µM. Also, the TGI is 93.5 µM with HS 578T breast; > 93.8 µM in the experiment with HCT-15 colon; > 64.2 µM with SW-620 colon; > 84.8 µM with NCI-H226 lung; 51.7 µM with SN12C renal; > 100 µM with U251 CNS. Also, the TGI in the experiment with SNB-75 CNS was > 89 µM; in the experiment with NCI/ADR-RES ovarian it was > 100 µM; in the experiment with OVCAR-8 ovarian, > 100 µM; with RXF 393 renal, 18.4 µM.

The values are drawn from PubChem BioAssay (NCI).
